# Patent US20240172756A1, “ORGANOANTIMONY(V) C[…] AND METHODS OF PRODUCTION AND USE THEREOF” (priority 2021, published 2024)
# How the values were obtained:
# Assay type in all cases: cell-based
# [1] = test system: bacterial and fungal pathogens; experiment: Antimicrobial activity overall (disk diffusion and MIC tests, strain not specified); details: for antimicrobial effect in MIC assays: organism not given
# Experimental: (§1) To determine the antimicrobial potential of the two generations (G1—based on SbPh4-core, and G2—based on SbMe3-core) of newly synthesized Sb(V) cyanoximates, several representative compounds were first selected and their antimicrobial properties tested by using disk diffusion assays, The minimal inhibitory concentrations (MIC) of selected compounds were also determined in liquid cultures. Three bacterial and two fungal pathogens were used as target microorganisms. Bacterial pathogens included Gram-negative Pseudomonas aeruginosa and Gram-positive Staphylococcus aureus, representing the ESKAPE group of human pathogens known for their high virulence and antibiotic resistance.
# (§2) Two different types of antimicrobial studies were performed: 1) paper disk studies during growth on solid media; and 2) MIC determination during growth in liquid media. […] Antifungal disk assays concluded that Sb(Ph)4 (ECO) was effective against Cryptococcus neoformans and Candida albicans. […] For MIC assays, Sb(Ph)4 (MCO), the Sb(V) cyanoximate, was tested, along with the free cyanoximes H(MCO), H(ECO), and Na[H(ACO)2].
# [2] = test system: Candida albicans; experiment: Antifungal disk diffusion assay, C. albicans; details: solid compound on paper disk
# Experimental: (§3) To determine the antifungal properties of the two groups of Sb(V) cyanoximaes, Cryptococcus neoformans and Candida albicans, both of which are deadly human pathogens, were tested.
# (§4) First, solid state powder compounds were deposited on paper disks and tested against two fungi: Cryptococcus neoformans and Candia albicans. Each experiment was conducted in triplicate with each compound at each concentration of deposited solid compound. The control was a blank paper (100% cotton disk).
# (§5) Disk diffusion assays: No inhibition of Cryptococcus neoformans or Candida albicans for the following organoantimony(V) cyanoximate compounds at any concentration (S, ×2, ×4): H(ACO), H(ECO), H(MCO).
# [3] = test system: Cryptococcus neoformans; experiment: Antifungal disk diffusion assay, C. neoformans; details: solid compound on paper disk
# Experimental: as §3, §4, §5
# [4] = test system: Escherichia coli; experiment: MIC in liquid culture, E. coli; details: for MIC, E. coli: Table 1; for antimicrobial effect: strain S17, paper disk and MIC studies
# Experimental: as §1
# (§6) MIC of the 3rd generation compounds, as well as complete MIC measurements for the 2nd generation Sb(V) compounds, are determined. A dilution assay in a 96-well-plate format, the gold standard for measuring MICS recommended by the Clinical Laboratory Standards Institute (CLSI), is utilized. Prior to plate inoculation, bacterial cultures of P. aeruginosa PAO1, S. aureus NRS70, E. foecium CC17, and E. coli S17 are grown in Mueller Hinton Broth (MHB) to middle log phase as determined by the individual growth curves and diluted to obtain absorbance at 600 nm of 0.1. These normalized cultures are diluted 1:100 using MHB and inoculated into the fresh medium with serially diluted Sb(V) compounds in 96-well plates. The plates are incubated for 24 h at 37° C. For fungal pathogens, cultures of Cryptococcus neoformans strain H99 and Candida albicans strain SC5314 are grown to stationary phase in YPD medium for 18 h at 30° C. Following incubation, fungal cells are centrifuged, washed three times with PBS, and then counted with trypan blue exclusion. Each compound is screened using a microdilution assay with 0.5×10^3 fungal cells in RPMI-MOPS medium at 35° C. for 48 h. Following incubations for bacterial or fungal pathogens, the OD600 is measured using a Biotek Synergy HT microtiter plate reader ([…].). The MIC is defined as the lowest concentration that inhibits growth. An aliquot from the clear wells from the MIC assay is plated on agar to determine minimum bactericidal concentration (MBC) or minimum fungicidal concentration (MFC). Each experiment is based on at least three biological replicates and repeated for consistency. The MIC and MBC for each compound is compared to those obtained for clinically applied antibiotics/antifungals. For bacterial pathogens, the corresponding antibiotics, such as tobramycin (P. aeruginosa), trimethoprim (S. aureus), gentamicin (E. coli) and ampicillin (E. foecium), are used. For fungal pathogens, the data is compared to the antifungal drugs Amphotericin B and Caspofungin for C. neoformans and C. albicans, respectively, by using the CLSI method.
# as §2
# (§7) MIC assays: The MIC assay protocol utilized for determination of the effects of various organoantimony(V) cyanoximate compounds in various bacteria is shown in FIG. 16. Each solubilized in DMSO at 5 mg/ml, starting concentration is 100 μg/ml. Error bars represent standard error of the mean (if none, the values were identical in each experiment). Untested compounds have no bar. Bars reaching 100 μg/ml were not considered to have antifungal activity.
# [5] = test system: Cryptococcus neoformans; experiment: MIC assay, C. neoformans; details: for MIC, C. neoformans: Table 1
# Experimental: as §3, §6
# (§8) Second, the compounds were dissolved in DMSO to […], and their minimal inhibitory concentration (MIC) was determined against C. neoformans and C. albicans. Starting concentration used was 100 μg/ml, and then diluted 1:2.
# as §7
# [6] = test system: Pseudomonas aeruginosa; experiment: MIC in liquid culture, P. aeruginosa; details: for MIC, P. aeruginosa: Table 1; for antimicrobial effect: strain PAO1, paper disk and MIC studies
# Experimental: as §1, §6, §2, §7
# [7] = test system: Candida albicans; experiment: MIC assay, C. albicans; details: for MIC, C. albicans: Table 1
# Experimental: as §3, §6, §8, §7
# [8] = test system: Staphylococcus aureus; experiment: MIC in liquid culture, S. aureus; details: for MIC, S. aureus: Table 1; for antimicrobial effect: Methicillin-resistant strain NRS70, paper disk and MIC studies
# Experimental: as §1, §6, §2, §7
# [9] = test system: Staphylococcus aureus MRSA; experiment: Broth dilution assay, S. aureus MRSA; details: multi-drug resistant strain, FIG. 20
# Text: As shown in FIGS. 20-21, compounds containing Sb display higher bactericidal activity against Gram positive Staphylococcus aureus (FIG. 20) than Gram negative E. coli (FIG. 21). […] In addition, 25-40% reduction of growth was also observed for Sb(Ph4)Br, Sb(Ph4)ECO, Sb(Ph4)ACO, and Sb(Ph4)TCO against Gram negative E. coli (FIG. 21).
# [10] = in DMSO, starting concentration 100 μg/ml, active if MIC below 100 μg/ml
Compound,antifungal activity / zone of inhibition in disk assay [2],antifungal activity / zone of inhibition in disk assay [3],"MIC, E. coli [4] [µg/mL]","MIC, C. neoformans [5] [µg/mL]","MIC, P. aeruginosa [6] [µg/mL]","MIC, C. albicans [7] [µg/mL]","MIC, S. aureus [8] [µg/mL]",further results
"N#C/C(=N\O)C(N)=O [H(ACO), reference compound]",No inhibition,No inhibition,,,,,,antimicrobial activity [1]: most antimicrobially active
"CCOC(=O)/C(C#N)=N/O [H(ECO), reference compound]",No inhibition,No inhibition,,,,,,antimicrobial effect in MIC assays [1]: no antimicrobial effect
"N#CC(=NO)C(=O)N1CCOCC1 [H(MCO), reference compound]",No inhibition,No inhibition,,,,,,antimicrobial activity [1]: most antimicrobially active; antimicrobial effect in MIC assays [1]: no antimicrobial effect
N#CC(=NO)C(N)=O.N#CC(=N[O-])C(N)=O.[Na+] [Na[H(ACO)2]],,,,,,,,antimicrobial effect in MIC assays [1]: no antimicrobial effect
"[CH3][Sb]([CH3])([CH3])([O]N=C(C#N)c1ccc(Cl)cc1Cl)[O]N=C(C#N)c1ccc(Cl)cc1Cl [SbMe3(2,4-ClPhCO)2]",,,>200,>100,>200,>100,,
"[CH3][Sb]([CH3])([CH3])([O]N=C(C#N)c1c(Cl)cccc1Cl)[O]N=C(C#N)c1c(Cl)cccc1Cl [SbMe3(2,6-ClPhCO)2]",,,50,>100,>200,>100,,antimicrobial activity [1]: pronounced antimicrobial activity
[CH3][Sb]([CH3])([CH3])([O]N=C(C#N)c1ccccc1Cl)[O]N=C(C#N)c1ccccc1Cl [SbMe3(2-ClPhCO)2],,,>200,>100,>200,>100,>200,
CCOC(=O)C(C#N)=N[O][Sb]([CH3])([CH3])([CH3])[O]N=C(C#N)C(=O)OCC [SbMe3(ECO)2],,,>200,,>200,,>200,
[CH3][Sb]([CH3])([CH3])([O]N=C(C#N)C(=O)N1CCOCC1)[O]N=C(C#N)C(=O)N1CCOCC1 [SbMe3(MCO)2],,,>200,,50,,>200,antimicrobial activity [1]: pronounced antimicrobial activity
[CH3][Sb]([CH3])([CH3])([O]N=C(C#N)C(N)=S)[O]N=C(C#N)C(N)=S [SbMe3(TCO)2],,,>200,,>200,,,
CN(C)C(=S)C(C#N)=N[O][Sb]([CH3])([CH3])([CH3])[O]N=C(C#N)C(=S)N(C)C [SbMe3(TDCO)2],,,>200,,>200,,,
"[CH3][Sb]([CH3])([CH3])([Br])[Br] [SbMe3Br2, triemethylantimony(V) dibromide, reference compound]",,,150,>100,50,>100,100,
N#CC(=N[O][Sb]([c]1ccccc1)([c]1ccccc1)([c]1ccccc1)[c]1ccccc1)C(N)=O [SbPh4ACO],only effective at inhibition of Cryptococcus neoformans,effective,100,18.8,100,15.6,100,antimicrobial effect [8]: significant antimicrobial effect; antimicrobial effect [4]: significant antimicrobial effect; MIC (minimum inhibitory concentrations) [9]: 100 µg/mL; bactericidal activity [9]: significant bactericidal activity; antimicrobial effect [6]: significant antimicrobial effect
"[Br][Sb]([c]1ccccc1)([c]1ccccc1)([c]1ccccc1)[c]1ccccc1 [SbPh4Br, tetraphenylantimony(V) bromide, reference compound]",,,,,,,,bactericidal activity [9]: significant bactericidal activity
CCOC(=O)C(C#N)=N[O][Sb]([c]1ccccc1)([c]1ccccc1)([c]1ccccc1)[c]1ccccc1 [SbPh4ECO],effective,effective,>200,10.9,150,31.2,150,antimicrobial effect [8]: significant antimicrobial effect; antimicrobial effect [4]: significant antimicrobial effect; bactericidal activity [9]: significant bactericidal activity; antimicrobial effect [6]: significant antimicrobial effect
N#CC(=N[O][Sb]([c]1ccccc1)([c]1ccccc1)([c]1ccccc1)[c]1ccccc1)C(=O)N1CCOCC1 [SbPh4MCO],,,>200,19.8,200,32.1,100,"concentration with fungicidal activity (killed C. neoformans) ([5]; Example 6): 100 µg/mL; MIC with C. neoformans ([5]; Example 6, three independent experiments): 22.5 µg/mL; antifungal activity in MIC assay [5, 10]: exhibited antifungal activity; antifungal activity in MIC assay [7, 10]: exhibited antifungal activity"
CN(C)C(=S)C(C#N)=N[O][Sb]([c]1ccccc1)([c]1ccccc1)([c]1ccccc1)[c]1ccccc1 [SbPh4TDCO],only effective at inhibition of Cryptococcus neoformans,effective,>200,33.3,>200,100,100,antimicrobial effect [8]: significant effects; antimicrobial effect [4]: essentially no antimicrobial activity; antimicrobial effect [6]: essentially no antimicrobial activity
